Test [1] has as its target T1, Histone deacetylase HD2 (Zea mays, UniProt Q94F81).
T1 sequence (Q94F81 whole entry): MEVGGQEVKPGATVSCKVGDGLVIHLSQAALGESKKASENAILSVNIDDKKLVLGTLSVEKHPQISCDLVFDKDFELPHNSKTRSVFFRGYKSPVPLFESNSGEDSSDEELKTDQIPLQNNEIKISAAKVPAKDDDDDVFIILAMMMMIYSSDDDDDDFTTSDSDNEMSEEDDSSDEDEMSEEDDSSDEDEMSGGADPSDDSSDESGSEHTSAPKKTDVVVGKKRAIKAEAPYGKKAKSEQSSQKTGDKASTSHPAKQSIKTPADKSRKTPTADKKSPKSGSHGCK
As to the kind of experiment: Experimental anti-HDAC (anti-histone deacetylase) activity of the compound.

Test [2] has as its target T1, Histone deacetylase HD2. Put plainly: Inhibitory concentration against histone deacetylase activity.
Test [3] deals with T2, Histone deacetylase HD2 (Zea mays) (UniProt Q94F81).
T2 sequence (whole entry): T1 sequence (Q94F81 whole entry)
Put plainly: Percent inhibition of histone deacetylase activity at 30 uM.

Test [4] addresses T2, Histone deacetylase HD2 (Zea mays). Put plainly: Percent inhibition of histone deacetylase activity at 5 mM.

Square brackets hold non-standard residues; d marks the D form. Peptide text beside a SMILES is read from it. Aoe = N[C@@H](CCCCCC(=O)[C@@H]1CO1)C(=O)O

For orientation: Ki means the dissociation constant of the complex between target and ligand, obtained from inhibition or displacement. Low values mean higher affinity, high ones lower affinity. Broadly, the IC50 is the point on the concentration scale where inhibition reaches its midpoint. A lower IC50 goes with higher potency. What is called inhibition is the drop in the measured response relative to a control, in per cent. Regarding `Cn1cc(C(=O)c2ccc(Cl)cc2)cc1/C=C/C(=O)NO`, the Ki on Histone deacetylase HD2 [1] was 1.45 µM. For the same molecule, the concentration for half-maximal inhibition (IC50) at Histone deacetylase HD2 [2] was found to be 2.4 µM. Moreover, the inhibition in test [3] was 87%.
Regarding `Cn1cc(C(=O)c2ccccc2)cc1CCC(=O)NO`, the affinity at Histone deacetylase HD2 [1] corresponds to a Ki of 0.00437 µM. Also, 36.8 µM corresponded to half-maximal inhibition at Histone deacetylase HD2 [2] (IC50). Moreover, in test [3], the inhibition turned out to be 45%.
On Histone deacetylase HD2 [1], `Cc1ccc(C(=O)c2cc(/C=C/C(=O)NO)n(C)c2)cc1` showed a Ki of 1.12 µM. Further, the IC50 at Histone deacetylase HD2 [2] came out at 1.9 µM. For the same molecule, in test [3], the inhibition worked out at 86.4%.
The molecule `O=C(CCCCCCC(=O)Nc1ccccc1)NO` [VORINOSTAT] gave an inhibition constant Ki at Histone deacetylase HD2 [1] of 0.132 µM.
The molecule `CCCC(=O)[O-].[Na+]` had an inhibition in test [4] of 35%.
The molecule `Cn1cc(C(=O)c2ccccc2)cc1/C=C/C(=O)NO` gave a Ki on Histone deacetylase HD2 [1] of 2.29 µM. This molecule also displayed an IC50 against Histone deacetylase HD2 [2] of 3.8 µM. Further, the inhibition in test [3] came to 86%.
On to `O=C1N[C@@H](Cc2ccccc2)C(=O)N2CCC[C@@H]2C(=O)N[C@@H](CCCCCC(=O)[C@@H]2CO2)C(=O)N[C@H]1Cc1ccccc1` [TRAPOXIN B] (cyclo(FF[dP][Aoe])), for which the IC50 against Histone deacetylase HD2 [2] was determined as 0.01 µM.
As for `COc1ccc(C(=O)c2cc(/C=C/C(=O)NO)n(C)c2)cc1`, the Ki on Histone deacetylase HD2 [1] was 1.74 µM. Half-maximal inhibition against Histone deacetylase HD2 [2] (IC50) required 2.9 µM. This molecule registered an inhibition in test [3] of 75.2%.
Turning to `Cn1cc(C(=O)c2ccccc2)cc1/C=C/C(=O)NCCO`, in test [3], the inhibition was found to be 0.9%.
The same measure, in the same setting: with `Cn1cc(C(=O)c2ccccc2)cc1/C=C/C(=O)NN` the figure was 0.2%.
`Cn1cc(C(=O)c2ccc([N+](=O)[O-])cc2)cc1/C=C/C(=O)NO` gave a Ki at Histone deacetylase HD2 [1] of 2.34 µM. On Histone deacetylase HD2 [2], this molecule showed an IC50 of 3.9 µM. The molecule further had an inhibition in test [3] of 78%.
The molecule `Cn1cc(C(=O)c2ccc(F)cc2)cc1/C=C/C(=O)NO` had a Ki on Histone deacetylase HD2 [1] of 2.29 µM. This molecule registered a half-inhibitory concentration (IC50) against Histone deacetylase HD2 [2] of 3.8 µM. This molecule also came in with an inhibition in test [3] of 84%.
The corresponding values for `CN(C)c1ccc(C(=O)c2cc(/C=C/C(=O)NO)n(C)c2)cc1` are 1.45 µM, 2.4 µM and 88%.

Values taken from ChEMBL document CHEMBL1134508, “3-(4-aroyl-1H-pyrrol-2-yl)-N-hydroxy-2-propenamides, a new class of synthetic histone deacetylase inhibitors” (J Med Chem, 2001).
